Source: patent US8846096B2, “Nanoparticles and methods of use” (Creighton University, priority 2008, dated 2014)
Values belong to the molecule of their own block, whether it stands above or below them.

Tests used:
[1] = Nanoparticle characterization (size, zeta potential, drug loading, entrapment efficiency); assay type: physicochemical; details: per drug, HPLC
Procedure: Briefly, in a typical procedure, a solution of ethylene oxide/propylene oxide block copolymer (Poloxamer-127; 2% [w/v] in double distilled water (ddH2O 10 mL); BASF, Mt. Olive, N.J.) was homogenized with ART drug powder (1 mg of each) in poly-lactic-co-glycolic acid) (PLGA) polymer (molecular weight 110,000-139,000 Daltons (100 mg) in 10 mL methylene chloride) using a probe sonicator (21W for 6 min) (Sonicator XL, Misonix, Farmingdale, N.Y.). The water-in-oil emulsion thus formed was further emulsified into 30 mL of 0.25% (w/v) aqueous solution of polyvinyl alcohol (PVA) as an emulsifier by using sonication as described above for 5 minutes to fowl multiple water-in-oil-in-water emulsion. […] Additionally, 6-hydroxycoumarin (a fluorescent dye; 1% w/v) was added to the polymer solution and one milligram of each ART were fabricated to make fluorescent nanoparticles for flow cytometry. In all formulation procedures, the emulsion was stirred for approximately 18 hours at room temperature to evaporate the organic solvent, methylene chloride, followed by ultracentrifugation (15,000 G for 45 minutes at 4° C., Optima LE-80K, Beckman, Palo Alto, Calif.), rinsed twice with ddH2O to remove PVA, and unentrapped drugs, and then lyophilized (Labconco, Freezone 4.5 at −52° C. and 5.62 torr) for 24 hours to obtain a dry powder.
Nanoparticle characterization: Nanoparticles were evaluated for size by […] as well as scanning electron microscopy (SEM) and surface charge by using a zeta potential analyzer (ZetaPlus, Brookhaven Instruments, Holtsville, N.Y.). For SEM, a sample of nanoparticles was suspended in water (0.2 mg/ml) and an aliquot of suspended particles were placed onto a tip and sputter coated with 2% w/v uranyl acetate, dried, and then visualized by using a JEOL-40A (JEOL Ltd, Sheboygan, Wis.) scanning electron microscope. Additionally, one milligram of formed particles was dissolved in one milliliter methylene chloride in glass tubes and evaporated overnight in quadruplicate. High pressure liquid chromatography (HPLC) mobile phase (200 μL) reconstituted the tubes. The tubes were centrifuged (11,000 rpm, 10 minutes, 4° C.) and aliquots were injected into the HPLC equipment to determine ART drug loading and entrapment efficiency.
Standards were analyzed in triplicate and averaged.

[2] = tested on: PBMCs; experiment: ART release from nanoparticles / free drug: intracellular drug levels in PBMCs by HPLC
Procedure: High pressure liquid chromatography (HPLC): HPLC was performed using a previously reported method (Weller et al., J. Chromatogr. B Analyt. Technol. Biomed. Life Sci., 2007, 848(2):369-73). Briefly, the equipment included a pump (LC-10ATvp), system controller (SIL-10ADvp); degasser unit (DGU-14A), refrigerated auto-sampler (SIL-10ADvp); and a UV-Vis detector (SPD-10ADvp) and a column heater (set at 35° C.) (all from Shimadzu Corporation, Columbia, Md.). Samples were run through a C18 pre-column and a Jupiter C18 reverse-phase [150×3.9 mm (I.D.)] with […] particle size packing (Phenomenex, Torrance, Calif.). The mobile phase was 25 mM KHPO4 (pH 4.9) and acetonitrile (40:60). The mobile phase was filtered and degassed prior to use. Flow rate was set at 0.9 mL/min and the detector was set at 212 nm. […] Peak area from the samples and standards were integrated using EZ-Start chromatography software (Shimadzu) on a Dell computer. Injection volume was 20 μL and all samples were analyzed in duplicate and averaged. Standards were analyzed in triplicate and averaged.
Human monocyte isolation and cultivation: Human PBMCs were obtained from whole blood collection of HIV-1, -2 and hepatitis B seronegative donor and purified using CPT Vacutainer tubes (BD and Co., Sparks, Md.) according to the manufacturer instructions. […] (1×10^6 cells/mL) were cultured in DMEM supplemented with 10% heat-inactivated pooled human serum, 1% glutamine, 1% penicillin-streptomycin, and 10 µg/mL ciprofloxacin (Sigma Chemical Co) then filter sterilized. The PBMCs were used within 2 hours after blood collection. Media was one-half exchanged with fresh media every 2-3 days. These cells were used for ART drug release experiments from nanoparticles as determined by HPLC. Human PBMCs at 5×10^6 were cultured in DMEM supplemented with 10% heat-inactivated pooled human serum, 1% glutamine, 1% penicillin-streptomycin, and 10 µg/mL ciprofloxacin (Sigma Chemical Co), and 1000 U/mL highly purified recombinant human macrophage colony stimulating factor (MCSF; R&D Systems, Inc; Minneapolis, Minn.) for seven days. Media was one-half exchanged very 2-3 days. Monocyte-derived macrophages (MDM) were used for TEM and fluorescent imaging.
ART Release from Nanoparticles: Antiretroviral nanoparticles (100 μg) were added to PBMC cell cultures. Flasks containing PBMCs and ART nanoparticles were placed in a 37° C., 5% CO2 incubator. At the appointed time, media in the flask was placed in a sterile 15 mL conical tube and centrifuged (400×G, 24° C. for 10 minutes). Cells (250 μL) were removed from the tube and put into a microfuge tube for HPLC analysis. […] Cell samples were placed in microfuge tubes, 250 μL of 100% methanol was added to lyse the cells then the cells were frozen (−20° C.) until assayed for ART drugs using HPLC. When HPLC was performed, microfuge tubes were thawed, centrifuged at 15,000 rpm at 4 C for 10 minutes and an aliquot of supernatant was placed into autosampler vials with glass insert. Free drugs (25 μg/mL of each ART drug) was dissolved in HPLC-grade ethanol, incubated with the PBMCs and cells were removed at 2, 4, 8, 24, and 48 hours, lysed with methanol, centrifuged, and assayed by HPLC as controls of these experiments.

[3] = Serum pharmacokinetics after a single intraperitoneal dose in mice; details: for MRT: MRT (mean residence time within the serum)
Procedure: (§1) The particles were weighed, reconstituted with PBS and 500 μg was injected intraperitoneally (IP) into male BALB/c mice. At specific times, (free: 0.08, 0.167, 0.25, 0.33, 1, 2 and 3 days; antiretroviral nanoparticles: 0.167, 0.33, 1, 2, 4, 7, 14, 21, 28, and 35 days) mice (n=3/time point) were euthanized and selected organs and serum were harvested for antiretroviral drug levels. Results are presented as mean±SEM.
(§2) The nanoparticle powder was weighed and 500 μg was dissolved in phosphate-buffered saline (PBS) and injected intraperitoneally into each BALB/c male mice (25-28 g). […] At specified times points, mice (n=3-4) were euthanized using a CO2 chamber and organs (spleen, liver, kidney, brain, testes) and blood (100-150 μL) were removed from each of the mice. Blood was allowed to clot, centrifuged (1000×G) and serum was harvested. The organs were harvested and immediately placed on ice. At weekly intervals, an aliquot of the organ tissue was weighed and 500 μL of 100% methanol was added to tissue and serum samples. The tissue was homogenized using a pellet homogenizer, equilibrated at 4° C. for 30 minutes, and then centrifuged (11,400 RPM×15 minutes at 4° C.). An aliquot of the supernatant (20 μL/injection) was added to autosampler vials with glass inserts. […] Duplicate samples from tissues and serum were assayed and standards were assayed in triplicate. The organ/serum samples were compared to the standard curve (45-1000 ng/ml) that was performed on that day using peak area and EZ-Chrom software (Shimadzu, Corp.).
Data is presented as mean±SEM where appropriate. Serum concentration-time curves were used to determine pharmacokinetic parameters. Elimination rate constant was determined using nonlinear regression of the terminal phase of the serum concentration-time curve. Apparent volume of distribution, total body clearance, mean residence time and area under the serum concentration-time curve to the last concentration obtained (AUC0-last) were determined by non-compartmental modeling.

[4] = Drug levels in organs and serum of mice after a single intraperitoneal dose; details: male, BALB/c, mouse, liver, ip, 500 μg
Procedure: as §1
as §2, with “The organ/serum samples were compared to the standard curve (45-1000 ng/ml) that was performed on that day using peak area and EZ-Chrom software (Shimadzu, Corp.).” left out

[5] = PLGA NPs 500 μg IP, mice, listed as E
[6] = male, BALB/c, mouse, in vivo, ip, 500 ug
[7] = male, BALB/c, mouse, in vivo, ip, 500 ug, Elimination half-life, drug given as PLGA nanoparticles, averaging
[8] = male, BALB/c, mouse, in vivo, ip, 500 ug, Free ART
[9] = male, BALB/c, mouse, in vivo, ip, 500 ug, NP ART
[10] = male, BALB/c, mouse, in vivo, ip, 500 ug, T1/2 (elimination half-life), Free ART
[11] = male, BALB/c, mouse, in vivo, ip, 500 ug, T1/2 (elimination half-life), NP ART

Antiretroviral drug loading of the nanoparticles [1]: 10.8% | Entrapment efficiency [1]: 86% | Intracellular peak level, drug given as nanoparticles ([2]; PLGA NPs (100 μg) incubated with PBMCs): 10.6+2.7 μg | Time of intracellular peak concentration, drug given as nanoparticles ([2]; PLGA NPs incubated with PBMCs): 24 h | Time of intracellular peak level, drug given as nanoparticles ([2]; PLGA NPs incubated with PBMCs (summary of Example 1)): 4 days | Intracellular peak concentration, free drug ([2]; free drug 25 μg/mL in ethanol, PBMCs, at 8 hours): 3.1+0.02 μg | Time of intracellular peak concentration, free drug ([2]; free drug, PBMCs): 8 h | Time to elimination of free drug from PBMCs ([2]; human, 25 μg/mL): ≤ 48 h | Peak serum level, drug given as PLGA nanoparticles ([3]; PLGA NPs 500 μg IP single dose, mice): 853.2 ± 64.1 ng/mL | AUC (area under the serum concentration-time curve), NP ART ([3]; PLGA NPs 500 μg IP, mice): E: 5716.9 ± 3177.7 ng-day/ml | ClT (total body clearance), NPs ([3]; PLGA NPs 500 μg IP, mice): 2.85 ± 2.12 mL/min/kg | Time of peak serum level, drug given as PLGA nanoparticles ([3]; PLGA NPs 500 μg IP, mice): 0.25 h | Vd (volume of distribution), NP ART ([3]; PLGA NPs 500 μg IP, mice): 11.38 ± 10.72 L/kg | MRT (mean residence time within the serum), NP ART [3, 5]: E: 10.3 ± 4.24 days | Vd (volume of distribution), NP ART [3, 5]: E: 11.4 ± 10.7 L/kg | Peak serum level, free drug ([3]; free drugs 500 μg IP single dose, mice, 4 hours post-injection): 3.5 ± 1.9 µg/L | AUC (area under the serum concentration-time curve, AUC0-last), Free ART ([3]; free drugs 500 μg IP, mice): 646 ± 640 ng·days/mL | Time of peak serum level, free drug ([3]; free drugs 500 μg IP, mice): 4 h | Vd (volume of distribution), Free ART ([3]; free drugs 500 μg IP, mice): 39.3 ± 26.6 L/kg | T1/2 (elimination half-life), Free ART ([3]; free drugs 500 μg IP, mice, serum, listed as E): E: 11.76 ± 2.8 hrs | AUC (area under the serum concentration-time curve, AUC0-last), Free ART [3, 6]: E: 645. 9 ± 640.2 ng-day/ml | MRT ([3]; male, BALB/c, mouse, serum, ip, 500 ug, Free ART, free drugs 500 μg IP, mice): 13.7 h | MRT ([3]; male, BALB/c, mouse, serum, ip, 500 ug, NP ART, PLGA NPs 500 μg IP, mice): 248 h | half-life ([3]; male, BALB/c, mouse, serum, ip, 500 ug, T1/2 (elimination half-life), Free ART, free drugs 500 μg IP, mice): 11.8 ± 2.8 h | half-life ([3]; male, BALB/c, mouse, serum, ip, 500 ug, T1/2 (elimination half-life), NP ART, PLGA NPs 500 μg IP, mice): 35.5 h | concentration at 28 day [4]: 1020 ± 440 ng/g
Structure (SMILES): O=C1Nc2ccc(Cl)cc2[C@@](C#CC2CC2)(C(F)(F)F)O1 [EFV, efavirenz]

Antiretroviral drug loading of the nanoparticles [1]: 4.9% | Time of intracellular peak concentration, free drug ([2]; human, 25 μg/mL): 8 h | Time to elimination of free drug from PBMCs ([2]; human, 25 μg/mL): ≤ 48 h | Intracellular peak level, drug given as nanoparticles ([2]; human, 100 μg): 2.5+1.1 μg | Time of intracellular peak concentration, drug given as nanoparticles ([2]; human, 100 μg): 96 h | Time of intracellular peak level, drug given as nanoparticles ([2]; human, 100 μg): 4 days | Vd (volume of distribution), Free ART [3, 6]: 9.7 ± 4.4 L/kg | Vd (volume of distribution), NP ART [3, 6]: 549.9 ± 360 L/kg | half-life [3, 7]: > 1680 h | MRT [3, 8]: 4.8 h | MRT [3, 9]: 775 h | half-life [3, 10]: 9.6 ± 2.8 h | half-life [3, 11]: 5500 h | AUC (area under the serum concentration-time curve), NP ART ([3]; mouse, in vivo, ip, 500 ug): R: 7020.5 ± 11428.7 ng-day/ml
Structure (SMILES): CC(C)c1nc(CN(C)C(=O)N[C@H](C(=O)N[C@@H](Cc2ccccc2)C[C@H](O)[C@H](Cc2ccccc2)NC(=O)OCc2cncs2)C(C)C)cs1 [RTV, ritonavir]

Antiretroviral drug loading of the nanoparticles [1]: 5.2% | Time of intracellular peak concentration, free drug ([2]; human, 25 μg/mL): 8 h | Time to elimination of free drug from PBMCs ([2]; human, 25 μg/mL): ≤ 48 h | Intracellular peak level, drug given as nanoparticles ([2]; human, 100 μg): 4.1+2.0 μg | Time of intracellular peak concentration, drug given as nanoparticles ([2]; human, 100 μg): 96 h | Time of intracellular peak level, drug given as nanoparticles ([2]; human, 100 μg): 4 days | Vd (volume of distribution), Free ART [3, 6]: 41.6 ± 31.7 L/kg | Vd (volume of distribution), NP ART [3, 6]: 118.6 ± 165.9 L/kg | half-life [3, 7]: > 1680 h | MRT [3, 8]: 14.4 h | MRT [3, 9]: 5490 h | half-life [3, 10]: 15.1 ± 6.4 h | half-life [3, 11]: 645 h | AUC (area under the serum concentration-time curve), NP ART ([3]; mouse, in vivo, ip, 500 ug): L: 3329.8 ± 1785.3 ng-day/ml
Structure (SMILES): Cc1cccc(C)c1OCC(=O)N[C@@H](Cc1ccccc1)[C@@H](O)C[C@H](Cc1ccccc1)NC(=O)[C@H](C(C)C)N1CCCNC1=O [LPV, lopinavir]
